Experimental data from US9035071B2, “Compounds acting at multiple prostaglandin receptors giving a general anti-inflammatory response” (Allergan, Inc., priority 2011, dated 2015).

How the values were obtained:
Assay type in all cases: cell-based
[1] = target: T1, human recombinant prostanoid FP receptor (Homo sapiens, UniProt P43088); experiment: FLIPR Ca2+ signaling, PG antagonist activity, FP; conditions: antagonism of standard agonist 17-phenyl-PGF2α, HEK-293 EBNA stable cells
T1 construct: expressed in transfected cells
Description: (§1) The above compounds were tested for PG antagonist activity as follows using human recombinant prostanoid receptor (DP1, EP1-4, FP, IP and TP) stable cell lines:
(§2) In order to measure the response of Gs and Gi coupled prostanoid receptors as a Ca^2+ signal, chimeric G protein cDNAs were used. Stable cell lines over-expressing human prostanoid DP1, EP1-4, FP, IP, and TP receptors were established as follows:
(§3) Briefly, human prostanoid DP1, EP2, and EP4 receptor cDNAs were co-transfected with chimeric Gqs cDNA containing a haemagglutanin (HA) epitope; human prostanoid EP3 receptors were co-transfected with chimeric Gqi-HA; human EP1, FP, IP, and TP receptor cDNAs were expressed with no exogenous G-proteins. Gqs and Gqi chimeric cDNAs (Molecular Devices, Sunnyvale, Calif., U.S.A.), as well as cDNAs of prostanoid receptors, were cloned into a pCEP4 vector with a hygromycin B selection marker. Transfection into HEK-293 EBNA (Epstein-Barr virus nuclear antigen) cells was achieved by the FuGENE 6 transfection Reagent (Roche Applied Science, Indianapolis, Ind., USA). Stable transfectants were selected according to hygromycin resistance. Because Gqs and Gqi contained an HA epitope, G-protein expression was detected by Western blotting analysis using anti-mouse HA monoclonal antibody and horseradish peroxidase (HRP)-conjugated secondary antibody, while functional expression of prostanoid receptors was detected by FLIPR screening (Matias et al., 2004). These stable cell lines were validated using previously published antagonists at 10 μM against serial dilutions of standard agonists by FLIPR functional assays for Ca^2− Signaling (as described below).
(§4) Ca^2+ signaling studies were performed using a FLIPR TETRA system (Molecular Devices, Sunnyvale, Calif., USA) in the 384-format. This is a high-throughput instrument for cell-based assays to monitor Ca^2+ signaling associated with GPCRs and ion channels. Cells were seeded at a density of 5×10^4 cells/well in BioCoat poly-D-lysine coated, black wall, clear bottom 384-well plates (BD Biosciences, Franklin lakes, N.J., USA) and allowed to attach overnight in an incubator at 37° C. The cells were then washed twice with HBSS-HEPES buffer (Hanks' balanced salt solution without bicarbonate and phenol red, 20 mM HEPES, pH 7.4) using an ELx405 Select CW Microplate Washer (BioTek, Winooski, Vt., USA). After 60 min of dye-loading in the dark using the Ca^2+-sensitive dye Fluo-4AM (Invitrogen, Carlsbad, Calif., USA), at a final concentration of 2×10^−6M, the plates were washed 4 times with HBSS-HEPES buffer to remove excess dye and leaving 50 μl of buffer in each well. The plates were then placed in the FLIPR TETRA instrument and allowed to equilibrate at 37° C. AGN-211377 was added in a 25 μl volume to each well to give final concentrations of 0.1 μM, 0.3 μM, 1 μM, 3 μM, 10 μM, and 30 μM; or 0.067 μM, 0.1 μM, 0.2 μM, 0.3 μM, 0.67 μM, and 1 μM for cells over-expressing TP receptors. After 4.5 minutes, a 7-point serial dilution of the standard agonist for the corresponding receptor, in a 25 μl volume was injected at the final concentrations from 10^−11M to 10^−5M in 10-fold serial dilution increments for cells expressing human recombinant DP1, EP1, EP2, EP3, EP4, FP, and IP receptors. The dose range for the standard agonist for human recombinant TP receptors was from 10^−12M to 10^−6M. HBSS-HEPES buffer was used as the negative control for the standard agonists. Cells were excited with LED (light emitting diode) excitation at 470-495 nm and emission was measured through an emission filter at 515-575 nm. Assay plates were read for 3.5 minutes using the FLIPR^TETRA. The peak increase in fluorescence intensity was recorded for each well. On each plate, negative controls, dose response of positive controls, and co-treatments of antagonist-agonist for each dose were in triplicates. Standard agonists were as follows: DP=BW 245C, EP1-EP4=PGE2, FP=17-phenyl-PGF2α, IP=Cicaprost, and TP=U-46619. […]

[2] = target: T2, human recombinant prostanoid DP1 receptor (Homo sapiens, UniProt Q13258); experiment: FLIPR Ca2+ signaling, PG antagonist activity, DP; conditions: antagonism of standard agonist BW 245C, HEK-293 EBNA stable cells with chimeric Gqs
T2 construct: expressed in transfected cells; co-transfected with chimeric Gqs-HA
T2 sequence (Q13258 1-359): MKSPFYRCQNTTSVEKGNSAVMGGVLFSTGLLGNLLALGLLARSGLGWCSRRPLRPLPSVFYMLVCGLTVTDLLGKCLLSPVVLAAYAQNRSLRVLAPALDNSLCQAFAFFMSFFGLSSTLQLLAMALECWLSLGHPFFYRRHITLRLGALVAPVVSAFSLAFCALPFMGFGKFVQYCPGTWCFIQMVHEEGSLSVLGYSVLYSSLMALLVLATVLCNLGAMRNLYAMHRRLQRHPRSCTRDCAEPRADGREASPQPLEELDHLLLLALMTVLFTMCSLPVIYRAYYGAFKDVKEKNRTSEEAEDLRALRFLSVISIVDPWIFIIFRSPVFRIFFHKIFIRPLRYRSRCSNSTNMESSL
Description: as §1, §2, §3, §4

[3] = target: T3, human recombinant prostanoid TP receptor (Homo sapiens, UniProt P21731); experiment: FLIPR Ca2+ signaling, PG antagonist activity, TP; conditions: antagonism of standard agonist U-46619, HEK-293 EBNA stable cells
T3 construct: expressed in transfected cells
T3 sequence (P21731 1-343): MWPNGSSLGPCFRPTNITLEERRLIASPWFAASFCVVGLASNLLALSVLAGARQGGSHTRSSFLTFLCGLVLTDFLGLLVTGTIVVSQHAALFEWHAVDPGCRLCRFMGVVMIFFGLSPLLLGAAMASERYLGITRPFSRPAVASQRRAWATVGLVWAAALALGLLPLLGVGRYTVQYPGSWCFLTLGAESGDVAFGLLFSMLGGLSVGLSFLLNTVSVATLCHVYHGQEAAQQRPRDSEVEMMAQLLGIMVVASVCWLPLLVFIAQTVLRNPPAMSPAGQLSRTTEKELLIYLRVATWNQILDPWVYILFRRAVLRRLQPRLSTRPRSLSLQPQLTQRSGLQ
Description: as §1, §2, §3, §4

T1 sequence (P43088 whole entry): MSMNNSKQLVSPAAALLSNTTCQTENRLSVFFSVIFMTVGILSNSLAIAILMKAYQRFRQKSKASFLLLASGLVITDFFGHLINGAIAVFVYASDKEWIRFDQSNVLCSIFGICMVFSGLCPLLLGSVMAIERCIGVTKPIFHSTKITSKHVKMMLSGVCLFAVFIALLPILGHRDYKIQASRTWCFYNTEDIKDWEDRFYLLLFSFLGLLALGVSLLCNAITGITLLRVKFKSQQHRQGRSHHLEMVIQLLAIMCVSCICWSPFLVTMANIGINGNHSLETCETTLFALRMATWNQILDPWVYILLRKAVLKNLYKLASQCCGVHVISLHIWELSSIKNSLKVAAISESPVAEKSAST

| SMILES | Kb [1] [nM] | Kb [2] [nM] | Kb [3] [nM] |
| --- | --- | --- | --- |
| CCC(CC)COc1ccc(Br)cc1Cn1ncc(CC(=O)O)c1C [Example 1, {1-[5-bromo-2-(2-ethyl-butoxy)-benzyl]-5-methyl-1H-pyrazol-4-yl}-acetic acid] | 2700 | 400 | 3 |
| CCC(CC)COc1ccc(Br)cc1Cn1cc(C(=O)O)c(C)n1 [Example 3] | 400 | 1100 | 30 |
| Cc1c(C(=O)O)cnn1Cc1cc(Cl)ccc1OCC(C)C [Example 11, 1-(5-chloro-2-isobutoxy-benzyl)-5-methyl-1-pyrazole-4-carboxylic acid] | 500 | 4550 | 80 |
| CCC(CC)COc1ccc(C(F)(F)F)cc1Cn1ncc(C(=O)O)c1C [Example 8, 1-[2-(2-ethyl-butoxy)-5-trifluoromethyl-benzyl]-5-methyl-1H-pyrazole-4-carboxylic acid] | 200 | 1400 | 45 |
| CCCc1c(C(=O)O)cnn1Cc1cc(Cl)ccc1OCC(CC)CC [Example 7, 1-[5-chloro-2-(2-ethyl-butoxy)-benzyl]-5-propyl-1H-pyrazole-4-carboxylic acid] | ≥ 10000 | ≥ 10000 | 150 |
| CCC(CC)COc1ccc(Br)cc1Cn1ncc(C(=O)O)c1N [Example 16, 5-amino-1-[5-bromo-2-(2-ethyl-butoxy)-benzyl]-1H-pyrazole-4-carboxylic acid] | 200 | 1600 | 50 |
| CCC(CC)COc1ccc(OC(F)(F)F)cc1Cn1ncc(C(=O)O)c1C [Example 15, 1-[2-(2-ethyl-butoxy)-5-trifluoromethoxy-benzyl]-5-methyl-1H-pyrazole-4-carboxylic acid] | 140 | 780 | 8 |
| Cc1c(C(=O)O)cnn1Cc1cc(Br)ccc1OCC(C)(C)C [Example 14, 1-[5-bromo-2-(2,2-dimethyl-propoxy)-benzyl]-5-methyl-1H-pyrazole-4-carboxylic acid] | 90 | 3400 | 20 |
| CCC(CC)COc1ccc(Br)cc1Cn1ncc(C(=O)O)c1C [Example 2, 1-[5-bromo-2-(2-ethyl-butoxy)-benzyl]-5-methyl-1H-pyrazole-4-carboxylic acid] | 80 | 600 | 12 |
| Cc1c(C(=O)O)cnn1Cc1cc(Br)ccc1OCC(C)C [Example 13, 1-(5-bromo-2-isobutoxy-benzyl)-5-methyl-1H-pyrazole-4-carboxylic acid] | 70 | 3500 | 20 |
| CCC(CC)COc1ccc(Cl)cc1Cn1nc(C)c(C(=O)O)c1C [Example 5, 1-[5-chloro-2-(2-ethyl-butoxy)-benzyl]-3,5-dimethyl-1H-pyrazole-4-carboxylic acid] | 700 | 350 | 18 |
| CCCc1nn(Cc2cc(Cl)ccc2OCC(CC)CC)cc1C(=O)O [Example 6, 1-[5-chloro-2-(2-ethyl-butoxy)-benzyl]-3-propyl-1H-pyrazole-4-carboxylic acid] | ≥ 10000 | 5600 | 500 |
| Cc1c(C(=O)O)cnn1Cc1cc(Cl)ccc1OCC1CCCC1 [Example 12, 1-(5-chloro-2-cyclopentylmethoxy-benzyl)-5-methyl-1H-pyrazole-4-carboxylic acid] | 110 | 2500 | 40 |
| CCC(CC)COc1ccc(C(F)(F)F)cc1Cn1cc(C(=O)O)c(C)n1 [Example 9, 1-[2-(2-ethyl-butoxy)-5-trifluoromethyl-benzyl]-3-methyl-1H-pyrazole-4-carboxylic acid] | 7200 | 3900 | 440 |
| CCC(CC)COc1ccc(Cl)cc1Cn1cc(C(=O)O)cn1 [Example 4, 1-[5-chloro-2-(2-ethyl-butoxy)-benzyl]-1H-pyrazole-4-carboxylic acid] | 2000 | 1400 | 100 |
| CCC(CC)COc1ccc(Cl)cc1Cn1ncc(C(=O)O)c1C [Example 10, 1-[5-chloro-2-(2-ethyl-butoxy)-benzyl]-5-methyl-1H-pyrazole-4-carboxylic acid] | 190 | 940 | 6 |
